Square brackets hold non-standard residues; d marks the D form. Ends that are not written are not given here. pS = N[C@@H](COP(=O)(O)O)C(=O)O
Experiments:
[1] = tested on: mouse osteoblast strain MC3T3-E1; test: Examination of in vitro calcification inhibitory activity (von Kossa staining of matrix calcification); assay type: cell-based; details: relative to Comparative Example 2 set at 100, MC3T3-E1, 3 mM βGP, 24 hours
Method: A mouse osteoblast strain MC3T3-E1 was cultured in a bone differentiation medium (α MEM (Eagle’s minimum essential medium, alpha modification) + 50 µg/mL ascorbic acid, 10% fetal calf serum) to form osteoid-like nodules. In order to induce calcification, 3 mM β-glycerophosphoric acid (hereinafter, “βGP”) was added together with a test substance to the medium. The strain was cultured for 24 hours after the addition of the test substance, and cells were washed with PBS, immobilized with 10% neutral buffered formalin, and then subjected to von Kossa staining. The matrix calcification was evaluated by measurement of calcium spots stained with von Kossa in the extracellular matrices of alkaline phosphatase (ALP)-stained positive cells, which were osteoblastic markers, with a stereoscopic microscope.

thoracic aorta = test: Calcification of cultured thoracic aorta rings under high phosphate load (headed 'in vivo calcification inhibitory activity'); assay type: cell-based, C57BL/6 mouse; details: for Calcification of thoracic aorta tissue (alizarin red staining): versus PBS solvent
Method: The thoracic aorta was harvested from a C57BL/6 mouse (10-week-old male), and then cut into ring-shaped portions (2 to 3 mm), which were cultured in 10% FCS DMEM (Dulbecco’s Moodified Eagle’s Medium, high glucose). From the next day, the peptides were added, and the resultants were loaded together with phosphoric acid having a high concentration (sodium phosphate, final concentration of 3 mM), and cultured for 10 days. The tissues immobilized with PFA were stained with alizarin red, and the vessel walls were incised and opened, and observed with a stereoscopic microscope. Moreover, the contents of calcium in liquid extracts obtained by decalcifying the vessels, cultured in a similar manner, with 10% formic acid for 24 hours were measured using a calcium quantification kit (Calcium C-test Wako, manufactured by Wako Pure Chemical Industries, Ltd.).

[2] = Evaluation of stability: residual rate in PBS by HPLC; assay type: physicochemical; details: 37° C., 7 days or 14 days, HPLC peak area, sample before use set at 100
Method: (§1) The amount of 1/20 to 1/25 of Comparative Example 2 or Example 5 (each 100 mM) was added to PBS or C57BL/6 mouse serum, and incubated at 37° C. for 7 days or 14 days. In measurement using the serum, 4 M perchloric acid (PCA) of which the amount was equal to the amount of a sample was added, and the resultant was diluted to 2-fold with MQ water and left to stand on ice for 5 minutes. The supernatant obtained by centrifugation for 2 minutes was subjected to HPLC (ODS column and 0.1% TFA/ acetonitrile). The residual rates of the test substances were calculated in a case in which the peak area of a sample adjusted before use was set at 100.

[3] = Evaluation of stability: residual rate in mouse serum by HPLC; assay type: in vitro ADME; details: C57BL/6 mouse serum, 37° C., 7 days or 14 days
Method: as §1

[4] = tested on: Enpp1 mutated mice (C57BL/6J-Enpp1asj/asj); test: Evaluation of drug efficacy in GACI model (aortic calcification score); assay type: in vivo, mouse; details: high phosphorus diet, continuous intravenous administration for 2 weeks by osmotic pump
Excerpt: The biallelic mutation of an Enpp1 gene is observed at 75% of GACI. Thus, the drug efficacy of the peptide was examined using Enpp1 mutated mice. Fertilized eggs from the Enpp1 mutated mice (C57BL/6J-Enpp1^asj/asj) were transplanted into ICR mice, and bred with a high phosphorus diet (AIN-93G-based, 0.4% Ca, 0.85% P, 0.04% Mg) immediately after deliveries. Male Enpp1^asj mice were weaned from the mothers 4 weeks after the births, and fed with a high phosphorus diet during an experimental period. […] A catheter was indwelled in the right cervical vein 6 to 7 weeks after the birth, and Example 5 was continuously administered for 2 weeks by an osmotic pump (manufactured by Altez). The thoracic (ventral) aorta was harvested, then immobilized with 4% para-formaldehyde PBS, washed, and then stained with alizarin red 0.5% KOH. The tissue was washed, and then preserved in 70% EtOH. For the obtained tissue, the calcification of the alizarin red-positive region of the thoracic aorta was scored (maximum value of 3) under the stereoscopic microscope.

caALK2Q207D mice = test: Evaluation of drug efficacy in FOP model (µCT of leg region); assay type: in vivo; details: Ad-Cre intramuscular, intraperitoneal 0.03 mg/mouse/day, day 6
Method: Cre recombinase recombinant adenovirus (Ad-Cre, manufactured by Vector Biolabs) was intramuscularly administered (2 × 10^7 pfu) to the crural muscles (triceps muscles) of 7-day-old caALK2Q207D mice (Paul B Yu and the 14 others, “BMP type I receptor inhibition reduces heterotopic ossification” Nat Med, 2008, 14(12), 1363-1369). Next day, Example 5 was intraperitoneally administered (0.03 mg/mouse/day). On day 6, the leg region was immobilized with 4% para-formaldehyde PBS, and µCT images were acquired.

ddY mice = test: Evaluation of safety, influence on osteogenesis (4-week continuous intravenous administration); assay type: in vivo, mouse; details: 4 weeks
Method: Thus, toxicity, particularly an influence on osteogenesis was examined using Comparative Example 2, as described below.
Catheters were indwelled in the jugular veins of 6-week-old ddY mice, and Comparative Example 2 was continuously administered at a high dose (1 mg/mouse/day) or low dose (0.1 mg/mouse/day) for 4 weeks using an osmotic pump (manufactured by Alzert). The low dose is 10 or more times as much as an effective drug efficacy concentration. Evaluation items were set to a body weight, the amount of intake of a food and drink, blood biochemistry (including calcium and phosphoric acid), the weights of principal organs, and histopathology. Moreover, bone structures were evaluated by µCT, and bone strengths were evaluated in a three-point bending test.

[5] = aorta rings, sodium phosphate 3 mM, cultured 10 days

Ac-SSESSESGSSSESD(C)-NH2 (N-Ac/chloroacetyl thioether cyclised, added C-terminal Cys amide; Phosphopeptide; MOD_RES (9)..(9) PHOSPHORYLATION; MOD_RES (11)..(11) PHOSPHORYLATION; MOD_RES (13)..(13) PHOSPHORYLATION) [Example 5]
Calcification inhibitory activity (relative) [1]: 500-1000<
Calcium content per protein (thoracic aorta; aorta rings loaded with phosphoric acid (Pi), decalcified with 10% formic acid, compared with Comparative Example 2): less than that in Comparative Example 2
Calcification inhibitory effect compared with Comparative Example 2 (alizarin red staining) (thoracic aorta; [5]): superior to that in Comparative Example 2
Calcification of thoracic aorta tissue (alizarin red staining) (thoracic aorta; [5]): calcification was inhibited
Residual rate in PBS [2]: not decreased
Residual rate in mouse serum [3]: inhibited in comparison with Comparative Example 2
Vascular calcification (calcification score of thoracic aorta, maximum value of 3) [4]: inhibited
Calcification in leg region (µCT images) (caALK2Q207D mice): no calcification was confirmed

DDSSESSDSGSSSESD (SEQ ID NO:12) (DDSSESSDSG[pS]S[pS]E[pS]D) [Example 1]
Calcification inhibitory activity (relative) [1]: 100

RDDSSESSDSGSSSESDGD (SEQ ID NO:10) (ASARM peptide) [Comparative Example 1, reference compound]
Calcification inhibitory activity (relative) [1]: 0

RDDSSESSDSGSSSESDGD (SEQ ID NO:11) (RDDSSESSDSG[pS]S[pS]E[pS]DGD) [Comparative Example 2, reference compound]
Calcification inhibitory activity (relative) [1]: 100
Calcification of thoracic aorta tissue (alizarin red staining) (thoracic aorta; [5]): calcification was inhibited
Residual rate in PBS [2]: decreased over time
Abnormal findings in body weight, intake of food and drink, blood biochemistry, weights of principal organs, histopathology (ddY mice; 1 mg/mouse/day or 0.1 mg/mouse/day continuous intravenous): Any abnormal findings were not observed
Bone volume (BV), bone mineral content (BMC), bone mineral density (BMD), bone strength (maximum load) versus PBS (ddY mice; high and low doses, µCT and three-point bending test): no significant differences

SSESSDSGSSSESD (SEQ ID NO:8) (SSESSDSG[pS]S[pS]E[pS]D) [Example 2]
Calcification inhibitory activity (relative) [1]: 100

SSESSESGSSSESD (SEQ ID NO:9) (SSESSESG[pS]S[pS]E[pS]D) [Example 3]
Calcification inhibitory activity (relative) [1]: 200<

SSESSESGSSSESD (SEQ ID NO:13) (SSESSESGSS[pS]E[pS]D) [Example 4]
Calcification inhibitory activity (relative) [1]: 110<
